Laboratory results as given in EP1020434A1, “3-AMIDINOANILINE DERIVATIVES, ACTIVATED BLOOD COAGULATION FACTOR X INHIBITORS, AND INTERMEDIATES FOR PRODUCING BOTH” (priority 1997, dated 1999).
Counter-ions that a name gives are not always drawn. Like-named read-outs stand apart in the source and are kept apart here.

What was measured:
[1] = target: T1, human activated blood coagulation factor X (Homo sapiens, UniProt P00742); assay: Measurement of inhibitory activity for activated blood coagulation factor X (chromogenic substrate S-2222); format: biochemical
T1 construct: purchased Calbiochem Corporation
Method: Measurement of inhibitory activity for activated blood coagulation factor X
(§1) Five µl of dimethylsulfoxide solution of test compound, 375 µl of tris-hydrochloric acid buffer (pH 8.4) and 100 µl of 1 mM S-2222 (Daiichi Pure Chemicals) aqueous solution were mixed. Then 20 µl of 0.6 U/ml human activated blood coagulation factor X (Calbiochem Corporation) in gelatin-glycine buffer was added and the mixture was incubated for 10 minutes at 37 °C. The reaction was terminated with the addition of 100 µl of 60 % acetic acid and absorbance (405 nm) was measured.
The group without the test compound was defined as control and the group without human activated blood coagulation factor X was defined as blank.

human thrombin = target: T2, human thrombin (Homo sapiens, UniProt P00734); assay: Measurement of inhibitory activity for thrombin (chromogenic substrate S-2238); format: biochemical
T2 construct: human thrombin (Sigma Chemical Company); purchased Sigma Chemical Company
Method: Measurement of inhibitory activity for thrombin
as §1, with “S-2238” for “S-2222”, “2.0” for “0.6”, “thrombin (Sigma Chemical Company)” for “activated blood coagulation factor X (Calbiochem Corporation)”
The group without the test compound was defined as control and the group without human thrombin was defined as blank. […]

normal human plasma = assay: Measurement of anticoagulation effects (plasma prothrombin time); format: biochemical; conditions: CT2, concentration that prolonged the clotting time (prothrombin time) of control by 2 times
Method: Measurement of anticoagulation effects (plasma prothrombin time)
Two µl of dimethylsulfoxide solution of test compound which was put in a process tube was incubated at 37 °C, and 50 µl of normal human plasma (George King Bio-Medical Inc.) was mixed. One minute later, 100 µl of plasma prothrombin time reagent (Neoplastin Plus®, Boehringer Mannheim) was added into the mixture. Prothrombin time was measured with ST4 (Boehringer Mannheim).
The group without the test compound was defined as control. The concentration of test compound that prolonged the clotting time of control by 2 times (CT2) was obtained and this value was used as the index of anticoagulation activity.

Male Wistar rats = assay: Acute toxicity test; format: in vivo
Method: Male Wistar rats aged 7 weeks (SLC) were divided into several groups consisting of 5 rats. The test compound was dissolved at the concentration that became the administration volume as 2.5 ml/kg. The solution was administered through the tail vein at an infusion rate of 1 ml/minute. Observations were performed at constant intervals, and survival rate was judged for 24 hours.

[2] = IC50, concentration showing 50 % inhibition of control, 10 minutes at 37 °C, pH 8.4, read-out: Inhibitory activity for activated blood coagulation factor X
[3] = IC50, concentration showing 50 % inhibition of control, 10 minutes at 37 °C, pH 8.4, read-out: Inhibitory activity for thrombin

T1 sequence (P00742 235-488 limits assumed): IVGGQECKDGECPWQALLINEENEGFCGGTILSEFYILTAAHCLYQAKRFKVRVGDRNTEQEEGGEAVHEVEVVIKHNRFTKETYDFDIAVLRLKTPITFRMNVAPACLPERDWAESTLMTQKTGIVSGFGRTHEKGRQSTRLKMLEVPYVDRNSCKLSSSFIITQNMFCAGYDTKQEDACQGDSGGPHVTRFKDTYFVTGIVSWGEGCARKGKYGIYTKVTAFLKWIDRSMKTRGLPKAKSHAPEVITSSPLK
T1 sequence (P00742 41-179 partner limits assumed): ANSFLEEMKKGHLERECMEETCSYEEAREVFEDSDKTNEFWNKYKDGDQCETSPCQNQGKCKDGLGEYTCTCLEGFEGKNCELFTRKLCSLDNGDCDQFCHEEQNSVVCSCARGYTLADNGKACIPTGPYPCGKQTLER

SMILES | IC50 [1, 2] | IC50 (human thrombin; [3]) | Anticoagulation effect (normal human plasma) | IC50 [1] | IC50 (human thrombin) | Death case (Male Wistar rats; 30 mg/kg through the tail vein, groups of 5 rats, survival judged for 24 hours) | death in acute toxicity test (Male Wistar rats; rats, intravenous administration, dose of 30 mg/kg)
CC(C)=CCN(CC(=O)Nc1ccc(OC(C)C)cc1)c1cccc(C(=N)N)c1.Cl [Compound 22, 2-[N-(3-Amidinophenyl)-N-(3-methyl-2-butenyl)amino]-N-(4-isopropoxyphenyl)acetamide hydrochloride] | 0.015 µM | 13 µM | 0.29 µM |  |  |  | 
CC(=N)N1CCC(c2ccc(NC(=O)CN(Cc3cccc(O)c3)c3cccc(C(=N)N)c3)cc2)CC1.Cl.Cl [Compound 52, 2-[N-(3-Amidinophenyl)-N-(3-hydroxybenzyl)amino]-N-[4-[1-(1-iminoethyl)piperidin-4-yl]phenyl]acetamide dihydrochloride] | 0.016 µM | 77 µM | 0.17 µM |  |  |  | 
CC(=N)N1CCC(c2ccc(NC(=O)CN(CC=C(C)C)c3cccc(C(=N)N)c3)cc2)CC1.Cl.Cl [Compound 55, 2-[N-(3-Amidinophenyl)-N-(3-methyl-2-butenyl)amino]-N-[4-[1-(1-iminoethyl)piperidin-4-yl]phenyl]acetamide dihydrochloride] | 0.004 µM | 15 µM | 0.091 µM |  |  |  | 
CC(=N)N1CCC(Oc2ccc(NC(=O)CN(Cc3ccccc3)c3cccc(C(=N)N)c3)cc2)CC1 [Compound 58, 2-[N-(3-Amidinophenyl)-N-benzylaminol-N-[4-[1-(1-imino-ethyl)piperidin-4-yloxy]phenyl]acetamidedihydrochloride] |  |  | 0.24 µM | 0.042 µM | 100 µM |  | 
CC(=N)N1CCC(c2ccc(NC(=O)CN(Cc3cccc(OCC(=O)O)c3)c3cccc(C(=N)N)c3)cc2)CC1.Cl.Cl [Compound 62, 2-[N-(3-Amidinophenyl)-N-(3-carboxymethyloxybenzyl)amino]-N-[4-[1-(1-iminoethyl)piperidin-4-yl]phenyl]acetamide dihydrochloride] |  | 206 µM | 0.21 µM |  |  | 0/5 | no death was observed
CC(=N)N1CCC(c2ccc(NC(=O)CN(Cc3cccc4ccccc34)c3cccc(C(=N)N)c3)cc2)CC1 [Compound 65, 2-[N-(3-Amidinophenyl)-N-(1-naphthylmethyl)amino]-N-[4-[1-(1-iminoethyl)piperidin-4-yl]phenyl]acetamide dihydrochloride] | 0.008 µM | 42 µM |  |  |  |  | 
CC(=N)N1CCC(c2ccc(NC(=O)CN(Cc3nc[nH]c3C)c3cccc(C(=N)N)c3)cc2)CC1.Cl.Cl [Compound 74, 2-[N-(3-Amidinophenyl)-N-(5-methylimidazol-4-ylmethyl)amino]-N-[4-[1-(1-iminoethyl)piperidin-4-yl]phenyl]acetamide dihydrochloride] | 0.019 µM | 177 µM | 0.30 µM |  |  |  | 
CC(=N)N1CCC(Oc2ccc(NC(=O)CNc3cccc(C(=N)N)c3)cc2)CC1 [Compound 79, 2-(3-Amidinophenylamino)-N-[4-[1-(1-iminoethyl)piperidin-4-yloxy]phenyl]acetamide dihydrochloride] | 0.096 µM | 308 µM |  |  |  |  | 
